Among the data in ChEMBL document CHEMBL1201862, “PubChem BioAssay data set” (2004) are IC50, EC50 and AC50 values, retold here.

Where “and” joins values, the source holds several entries; their conditions need not be identical. Equal entries are not always repeated. Calls of active or inactive are those of the source. For most assays here, no stated cut-off is given here; in the data, actives have a measured IC50 and inactives only a lower limit.

Experiment [1] deals with G-protein coupled receptor 55 (Homo sapiens, UniProt Q9Y2T6). As to the kind of experiment: inhibition of LPI-stimulated GPR55 beta-arrestin translocation – imaging, U2OS, beta-arrestin-GFP, LPI agonist, primary screen (AID 2013).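 Further: antagonist potency measured as reduced agonist-driven arrestin aggregation.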 It counts as functional.
Experiment [2] relates to HEK293. In words: cells. It counts as functional, cell-based. As to conditions: Homo sapiens.
Experiment [3] concerns HEK293. As to the kind of experiment: inhibition of NOD1-driven NF-kB reporter – cell-based, luminescence, uHTS, primary screen (AID 1578). It counts as functional. As to conditions: Homo sapiens.
Experiment [4] addresses Nucleotide-binding oligomerization domain-containing protein 1 (Homo sapiens, UniProt Q9Y239). In words: blockers of NOD1 pathway activity – revised, SAR follow-up (AID 2333). It counts as functional.
In experiment [5] the test system is HEK293. In words: NOD2 signaling inhibitors in MDP-stimulated cells, cell-based, uHTS, luminescence (AID 2001). Format: functional. Particulars: Homo sapiens.
The subject of experiment [6] is HEK293. In words: cells. Particulars: Homo sapiens.
Experiment [7] concerns HEK293. In words: cells. It counts as functional, cell-based. As to conditions: Homo sapiens. This is another data set of the same source.
Experiment [8] concerns the target Tumor necrosis factor (Homo sapiens, UniProt P01375). In words: analog potency on TNFa NF-kB signaling – cell-based, revised, SAR follow-up (AID 2337). Format: functional.
The target of experiment [9] is T1, SUMO-activating enzyme (Homo sapiens, UniProt Q9UBT2). As to the kind of experiment: blockers of SAE1/SAE2–UBC9 SUMO transfer – biochemical, HTRF, uHTS, primary screen (AID 2006). Format: protein-complex assay. (In general: Time-resolved FRET reads energy transfer from a long-lived donor to a nearby acceptor.)
The target in experiment [10] is T1, SUMO-activating enzyme. In words: blockers of UBC9-mediated SUMO conjugation – biochemical, AlphaScreen, SUMOylation inhibitor project, confirmation (AID 2018). It counts as functional. Background: Bead proximity is the source of the signal in Alpha formats.
Experiment [11] can be described thus: HEK-293T cell viability reduction – luminescence, B-cell screen hits, cytotoxicity control for BCR NF-kB inhibitor project, dose response (AID 489021).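 Further: HEK-293T cells carrying an NF-kB luciferase reporter; cells exposed to compound for about 14 hours before viability readout.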 Format: functional, cell-based.
Experiment [12] concerns the target T2, Mitochondrial peptide methionine sulfoxide reductase (Bos taurus, UniProt P54149).
T2 sequence (P54149 whole entry): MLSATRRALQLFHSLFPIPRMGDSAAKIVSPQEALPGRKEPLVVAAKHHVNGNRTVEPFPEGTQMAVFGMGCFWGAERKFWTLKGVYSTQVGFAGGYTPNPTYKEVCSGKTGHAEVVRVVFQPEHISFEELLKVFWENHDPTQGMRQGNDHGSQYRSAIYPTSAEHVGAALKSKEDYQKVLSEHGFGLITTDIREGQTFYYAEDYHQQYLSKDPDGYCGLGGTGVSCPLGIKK
As to the kind of experiment: Absorbance-based biochemical high throughput dose response assay for activators of Methionine sulfoxide reductase A (MsrA). Format: functional.

In experiment [13] the test system is HeLa. As to the kind of experiment: viability loss in HeLa cells – cell-based, 24 h, cherry-picked samples, cytotoxicity control, dose response (AID 504726).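 Further: potency for cytotoxicity as loss of luminescence signal.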 Particulars: Homo sapiens. Format: functional.

Chain of Nucleotide-binding oligomerization domain-containing protein 1 (Q9Y239 whole entry, the tested form may be a part): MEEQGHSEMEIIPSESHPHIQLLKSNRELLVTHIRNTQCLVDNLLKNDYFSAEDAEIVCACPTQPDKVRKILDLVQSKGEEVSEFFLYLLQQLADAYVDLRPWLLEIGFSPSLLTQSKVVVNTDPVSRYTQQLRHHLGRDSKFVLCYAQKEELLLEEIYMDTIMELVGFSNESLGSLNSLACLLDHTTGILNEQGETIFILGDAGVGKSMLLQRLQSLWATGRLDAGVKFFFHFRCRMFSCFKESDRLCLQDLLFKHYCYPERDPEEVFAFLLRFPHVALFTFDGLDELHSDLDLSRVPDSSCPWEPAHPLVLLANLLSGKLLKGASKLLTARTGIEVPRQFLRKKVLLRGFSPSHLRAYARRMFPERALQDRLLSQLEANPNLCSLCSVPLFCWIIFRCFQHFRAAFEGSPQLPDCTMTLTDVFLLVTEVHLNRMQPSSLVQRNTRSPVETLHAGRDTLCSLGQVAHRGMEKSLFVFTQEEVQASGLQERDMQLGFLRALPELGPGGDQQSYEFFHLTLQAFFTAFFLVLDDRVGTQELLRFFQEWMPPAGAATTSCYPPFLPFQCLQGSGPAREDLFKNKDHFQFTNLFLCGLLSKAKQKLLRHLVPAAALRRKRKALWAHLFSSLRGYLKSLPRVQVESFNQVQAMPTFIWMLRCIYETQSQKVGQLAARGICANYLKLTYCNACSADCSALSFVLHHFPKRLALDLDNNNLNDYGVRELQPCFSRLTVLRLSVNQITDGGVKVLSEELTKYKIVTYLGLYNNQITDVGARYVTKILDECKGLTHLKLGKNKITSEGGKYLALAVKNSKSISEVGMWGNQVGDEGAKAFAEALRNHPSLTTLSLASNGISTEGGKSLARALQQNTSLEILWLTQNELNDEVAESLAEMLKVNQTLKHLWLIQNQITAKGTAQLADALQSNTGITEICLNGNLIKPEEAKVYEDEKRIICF
Chain of Tumor necrosis factor (P01375 whole entry): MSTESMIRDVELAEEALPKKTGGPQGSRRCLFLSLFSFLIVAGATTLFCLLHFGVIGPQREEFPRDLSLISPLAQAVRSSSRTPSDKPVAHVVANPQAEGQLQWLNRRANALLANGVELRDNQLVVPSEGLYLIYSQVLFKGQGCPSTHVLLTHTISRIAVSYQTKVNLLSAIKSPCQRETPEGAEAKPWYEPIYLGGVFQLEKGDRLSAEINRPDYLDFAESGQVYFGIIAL
T1 sequence (Q9UBE0 whole entry): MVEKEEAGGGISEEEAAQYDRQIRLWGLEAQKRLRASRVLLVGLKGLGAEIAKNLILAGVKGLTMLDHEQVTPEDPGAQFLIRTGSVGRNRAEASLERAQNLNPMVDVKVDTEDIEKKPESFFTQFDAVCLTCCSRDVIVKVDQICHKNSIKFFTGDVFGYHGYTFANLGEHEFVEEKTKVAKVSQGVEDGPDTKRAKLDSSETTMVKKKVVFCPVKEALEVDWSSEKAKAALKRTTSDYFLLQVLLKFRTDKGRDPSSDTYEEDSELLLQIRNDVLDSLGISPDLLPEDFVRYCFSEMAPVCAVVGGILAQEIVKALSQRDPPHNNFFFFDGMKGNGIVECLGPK
T1 sequence (Q9UBT2 whole entry): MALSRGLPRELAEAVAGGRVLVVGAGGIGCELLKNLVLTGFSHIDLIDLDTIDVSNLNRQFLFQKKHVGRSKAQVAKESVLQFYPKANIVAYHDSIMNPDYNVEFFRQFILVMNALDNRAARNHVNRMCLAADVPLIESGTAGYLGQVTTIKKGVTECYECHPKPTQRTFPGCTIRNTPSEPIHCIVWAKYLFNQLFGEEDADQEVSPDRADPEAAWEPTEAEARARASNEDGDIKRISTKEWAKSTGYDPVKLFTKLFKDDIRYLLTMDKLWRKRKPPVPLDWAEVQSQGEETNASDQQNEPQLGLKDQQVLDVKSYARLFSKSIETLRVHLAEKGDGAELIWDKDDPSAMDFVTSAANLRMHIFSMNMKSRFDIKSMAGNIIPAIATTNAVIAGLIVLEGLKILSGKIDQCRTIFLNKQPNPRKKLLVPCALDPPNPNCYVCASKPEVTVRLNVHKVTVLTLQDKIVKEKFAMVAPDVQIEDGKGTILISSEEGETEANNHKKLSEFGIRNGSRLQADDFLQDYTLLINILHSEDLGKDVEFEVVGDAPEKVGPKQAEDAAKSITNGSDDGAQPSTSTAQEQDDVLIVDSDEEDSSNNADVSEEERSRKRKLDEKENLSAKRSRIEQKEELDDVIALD
Chain of G-protein coupled receptor 55 (Q9Y2T6 whole entry): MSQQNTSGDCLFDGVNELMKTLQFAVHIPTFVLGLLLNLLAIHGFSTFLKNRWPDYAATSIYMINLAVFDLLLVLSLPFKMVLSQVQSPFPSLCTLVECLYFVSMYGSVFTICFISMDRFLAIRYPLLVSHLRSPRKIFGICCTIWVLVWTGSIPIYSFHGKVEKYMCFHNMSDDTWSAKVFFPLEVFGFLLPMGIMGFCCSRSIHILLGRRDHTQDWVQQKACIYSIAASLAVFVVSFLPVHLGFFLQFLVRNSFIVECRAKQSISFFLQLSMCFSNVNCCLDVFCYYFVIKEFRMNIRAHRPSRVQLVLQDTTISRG

As to `C=CCn1c(S)nnc1CCc1cc(C(C)(C)C)c(O)c(C(C)(C)C)c1`, in experiment [1], the IC50 is 3 µM (active).
In the case of `CCOC(=O)c1ccc(NC(=O)c2ccc(CN3CCc4ccccc4C3)cc2)cc1`, the IC50 was < 0.312 µM (active) in [2]; 335 nM (active) and 152 nM (active) in [4]; 1.3 µM (inactive) in [5]; > 20 µM (inactive) in experiment [6]; > 20 µM (inactive) in experiment [7]; 1.4 µM (active) and 140 nM (active) in experiment [8]. Besides, the EC50 in [3] is 0.85 µM (active).
As to `Sc1nnc(-c2cc(-c3ccccc3)[nH]n2)n1/N=C/c1c(Cl)cccc1Cl`, the IC50 in experiment [9] is 16.6 µM (active); in [10] it was 3.77 µM (active).
With `CCN1CC2=C(OC(N)=C(C#N)C2c2cccs2)/C(=C/c2cccs2)C1` (configuration not stated), the IC50 in experiment [1] is 5.29 µM (active).
As for `C=C1C(=O)[C@@]23C[C@H]4[C@@H]5[C@@]6(C)CCC[C@@]57[C@@H]2[C@@H](O)[C@@H]1C[C@H]3[C@H]7N4C6`, in experiment [11], the IC50 was > 80 µM (inactive). Moreover, the EC50 in [12] is 15.8 µM (inactive).
Regarding `COc1ccc(/C=C/C(=O)NC(=S)Nc2ccc(S(N)(=O)=O)cc2)cc1`, in experiment [13], the concentration at half-maximal activity (AC50) was 246 µM (active).
On to `Cc1ccc2c(c1)sc(-c1ccc(N(C)C)cc1)[n+]2C`, for which the IC50 in [4] is 556 nM (active); in experiment [6], 7.77 µM (active); in experiment [8], 762 nM (active).

For orientation: IC50 means the concentration at which inhibition is half-maximal. The EC50 is the concentration giving half of the maximal effect. One may read the AC50 as the concentration at which the activity in the assay is half-maximal.
